19 compounds from patent publication US7951814B2, “Quinazolinedione derivatives as TRPA1 modulators” (Glenmark Pharmaceuticals, S.A., priority 2008, dated 2011) can be followed below.

SMILES strings stand for the structures. Where only a bound is given, the exact number is not on record here.

The target of the test is T1, Human TRPA1 expressing CHO cells (Homo sapiens, UniProt O75762).
T1 construct: expressed in transfected cells; host or cells: CHO cells (under G-418 selection)
The test is described as follows: 45Calcium uptake assay: inhibition of AITC induced cellular uptake of radioactive calcium. Format: cell-based. The note with it: AITC 30 μM, human TRPA1 CHO cells; for inhibition at 1 µM: 1.0 μM test compound, read-out: Percentage inhibition at 1.0 μM; for inhibition at 10 µM: 10.0 μM test compound, read-out: Percentage inhibition at 10.0 μM; for IC50: read-out: IC50 value (range). The protocol: The illustrative examples of the present invention are screened for TRPA1 activity according to a modified procedure described in (a) Tóth, A. et al. Life Sciences (2003), 73, 487-498. ([…]. et al. Proc. Natl. Acad. Sci. U.S.A., (2007), 104, 13525-13530. The screening of the compounds can be carried out by other methods and procedures known to persons skilled in the art. Screening for TRPA1 Antagonist Using the ^45Calcium Uptake Assay The inhibition of TRPA1 receptor activation was measured as inhibition of allyl isothiocyanate (AITC) induced cellular uptake of radioactive calcium. […] Final concentration of DMSO in the reaction was 0.5% (v/v). […] Cells were seeded 24 h prior to the assay in 96 well plates so as to get 50,000 cells per well on the day of experiment. Cells were treated with test compounds for 10 min followed by addition of AITC at a final concentration of 30 μM and 5 μCi/ml ^45Ca^+2 for 3 min. […] Radioactivity in the lysate was measured in Packard Top count after addition of liquid scintillant. Concentration response curves were plotted as a % of maximal response obtained in the absence of test antagonist. IC50 value was calculated from concentration response curve by nonlinear regression analysis using GraphPad PRISM software.

T1 sequence (O75762 whole entry): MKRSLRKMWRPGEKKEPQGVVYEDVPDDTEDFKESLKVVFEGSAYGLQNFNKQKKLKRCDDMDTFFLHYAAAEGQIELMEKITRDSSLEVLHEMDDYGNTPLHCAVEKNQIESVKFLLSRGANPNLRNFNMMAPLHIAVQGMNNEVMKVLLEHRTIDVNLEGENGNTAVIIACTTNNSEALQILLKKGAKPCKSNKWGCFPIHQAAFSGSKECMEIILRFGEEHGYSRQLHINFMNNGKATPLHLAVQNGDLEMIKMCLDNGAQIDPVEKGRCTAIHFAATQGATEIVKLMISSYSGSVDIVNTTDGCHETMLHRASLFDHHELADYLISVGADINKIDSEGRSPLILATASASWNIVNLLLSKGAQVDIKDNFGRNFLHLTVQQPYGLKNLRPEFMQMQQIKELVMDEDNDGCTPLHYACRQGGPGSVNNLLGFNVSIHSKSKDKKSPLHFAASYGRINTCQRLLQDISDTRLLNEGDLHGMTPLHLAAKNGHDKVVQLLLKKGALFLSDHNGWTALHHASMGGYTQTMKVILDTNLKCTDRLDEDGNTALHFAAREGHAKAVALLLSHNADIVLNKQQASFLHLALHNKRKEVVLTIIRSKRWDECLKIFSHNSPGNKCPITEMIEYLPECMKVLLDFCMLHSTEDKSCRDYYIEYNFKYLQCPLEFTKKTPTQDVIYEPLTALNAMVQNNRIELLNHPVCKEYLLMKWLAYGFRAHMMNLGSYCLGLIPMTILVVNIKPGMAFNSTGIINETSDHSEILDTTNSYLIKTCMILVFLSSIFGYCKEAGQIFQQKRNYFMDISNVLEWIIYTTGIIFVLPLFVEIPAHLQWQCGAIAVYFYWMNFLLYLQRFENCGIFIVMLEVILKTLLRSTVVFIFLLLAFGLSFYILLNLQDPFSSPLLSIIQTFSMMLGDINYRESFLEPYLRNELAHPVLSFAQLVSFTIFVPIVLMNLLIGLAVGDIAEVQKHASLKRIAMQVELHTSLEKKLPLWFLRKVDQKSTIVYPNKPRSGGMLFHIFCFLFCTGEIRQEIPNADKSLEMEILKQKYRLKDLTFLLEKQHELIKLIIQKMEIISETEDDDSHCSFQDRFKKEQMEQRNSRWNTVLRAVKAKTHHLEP

Regarding `Cn1c(=O)c2c(CC(=O)Nc3nc(-c4ccc(F)cc4)cs3)cccc2n(C)c1=O` [Example 9, N1-[4-(4-Fluorophenyl)-1,3-thiazol-2yl]-2-(1,3-dimethyl-2,4-dioxo-1,2,3,4-tetrahydro-5-quinazolinyl)acetamide], the inhibition at 1 µM stood at 30.8% and the inhibition at 10 µM was determined as 43.8%.
For `COc1ccc(-c2csc(NC(=O)Cc3cccc4c3c(=O)n(C)c(=O)n4C)n2)cc1` [Example 17, N1-[4-(4-Methoxyphenyl)-1,3-thiazol-2-yl]-2-(1,3-dimethyl-2,4-dioxo-1,2,3,4-tetrahydro-5-quinazolinyl)acetamide], the inhibition at 1 µM came to 30% and the inhibition at 10 µM was 75.9%.
Turning to `Cn1c(=O)c2c(CC(=O)Nc3nc(-c4cc(Cl)ccc4Cl)cs3)cccc2n(C)c1=O` [Example 46, N1-[4-(2,5-Dichlorophenyl)-1,3-thiazol-2-yl]-2-(1,3-dimethyl-2,4-dioxo-1,2,3,4-tetrahydro-5-quinazolinyl)acetamide], the inhibition at 1 µM came to 84.3%, the inhibition at 10 µM turned out to be 87.9% and the IC50 was over 100 nM.
With `Cn1c(=O)c2c(CC(=O)Nc3nc(-c4ccc(C5CCCCC5)cc4)cs3)cccc2n(C)c1=O` [Example 18, N1-[4-(4-Cyclohexylphenyl)-1,3-thiazol-2yl]-2-(1,3-dimethyl-2,4-dioxo-1,2,3,4-tetrahydro-5-quinazolinyl)acetamide], the inhibition at 1 µM amounted to 79.3%, the inhibition at 10 µM was 88.3% and the 50% inhibitory concentration (IC50) is under 50 nM.
For `CCc1ccc(-c2csc(NC(=O)Cc3cccc4c3c(=O)n(C)c(=O)n4C)n2)cc1` [Example 23], the inhibition at 1 µM came to 96.2%, the inhibition at 10 µM came to 96.9% and the IC50 is 50.1 to 100 nM.
As to `Cn1c(=O)c2c(CC(=O)Nc3ccc(-c4ccc(Cl)cc4)cn3)cccc2n(C)c1=O` [Example 5, N1-[5-(4-chlorophenyl)-2-pyridyl]-2-(1,3-dimethyl-2,4-dioxo-1,2,3,4-tetrahydro-5-quinazolinyl)acetamide], the inhibition at 1 µM turned out to be 52.2% and the inhibition at 10 µM was 71.5%.
On to `Cn1c(=O)c2c(CC(=O)Nc3nc(C4CCCCC4)cs3)cccc2n(C)c1=O` [Example 7, N1-[4-(4-Cyclohexyl)-1,3-thiazol-2yl]-2-(1,3-dimethyl-2,4-dioxo-1,2,3,4-tetrahydro-5-quinazolinyl)acetamide], for which the inhibition at 1 µM was determined as 62.2% and the inhibition at 10 µM worked out at 60.5%.
As for `Cn1c(=O)c2c(CC(=O)Nc3nc(-c4ccc(Br)cc4)cs3)cccc2n(C)c1=O` [Example 12], the inhibition at 1 µM was 98.7%, the inhibition at 10 µM amounted to 99.2% and the IC50 fell in the range of 50.1 to 100 nM.
For `Cn1c(=O)c2c(CC(=O)Nc3cccc(-c4ccc(Cl)cc4)n3)cccc2n(C)c1=O` [Example 4, N1-[6-(4-chlorophenyl)-2-pyridyl]-2-(1,3-dimethyl-2,4-dioxo-1,2,3,4-tetrahydro-5-quinazolinyl)acetamide], the inhibition at 1 µM was 60.7% and the inhibition at 10 µM was determined as 95.2%.
The like results for `Cc1cc2nc(NC(=O)Cc3cccc4c3c(=O)n(C)c(=O)n4C)sc2cc1C` [Example 77, N1-(5,6-Dimethylbenzo[d][1,3]thiazol-2-yl)-2-(1,3-dimethyl-2,4-dioxo-1,2,3,4-tetrahydro-5-quinazolinyl)acetamide] were, in that order, 49.1% and 95.5%.
As to `Cn1c(=O)c2c(CC(=O)Nc3nc(-c4ccc(OCC(F)(F)F)c(F)c4)cs3)cccc2n(C)c1=O` [Example 59, N1-{4-[3-fluoro-4-(2,2,2-trifluoroethoxy)phenyl]-1,3-thiazol-2yl}-2-(1,3-dimethyl-2,4-dioxo-1,2,3,4-tetrahydro-5-quinazolinyl)acetamide], the inhibition at 1 µM stood at 96.8%, the inhibition at 10 µM was found to be 100% and the IC50 was under 50 nM.
Regarding `Cn1c(=O)c2c(CC(=O)Nc3nc(-c4cccc(OC(F)(F)F)c4)cs3)cccc2n(C)c1=O` [Example 16, N1-[4-(3-Trifluoromethoxyphenyl)-1,3-thiazol-2-yl]-2-(1,3-dimethyl-2,4-dioxo-1,2,3,4-tetrahydro-5-quinazolinyl)acetamide], the inhibition at 1 µM is 95.6%, the inhibition at 10 µM was found to be 99.7% and the IC50 is under 50 nM.
As for `Cn1c(=O)c2c(CC(=O)Nc3nc(-c4cc(Cl)ccc4F)cs3)cccc2n(C)c1=O` [Example 52, N1-[4-(5-Chloro-2-fluorophenyl)-1,3-thiazol-2-yl]-2-(1,3-dimethyl-2,4-dioxo-1,2,3,4-tetrahydro-5-quinazolinyl)acetamide], the inhibition at 1 µM worked out at 92.5%, the inhibition at 10 µM is 95.3% and the IC50 is over 100 nM.
Consider `Cn1c(=O)c2c(CC(=O)Nc3nc(-c4cc(Cl)cc(Cl)c4)cs3)cccc2n(C)c1=O` [Example 48, N1-[4-(3,5-Dichlorophenyl)-1,3-thiazol-2-yl]-2-(1,3-dimethyl-2,4-dioxo-1,2,3,4-tetrahydro-5-quinazolinyl)acetamide], for which the inhibition at 1 µM worked out at 96.3%, the inhibition at 10 µM came to 100% and the IC50 lay within 50.1 to 100 nM.
`Cn1c(=O)c2c(CC(=O)Nc3nc(-c4ccc(OC(F)(F)F)c(F)c4)cs3)cccc2n(C)c1=O` [Example 41]: the inhibition at 1 µM was found to be 74.4%, the inhibition at 10 µM worked out at 99.7% and the IC50 was under 50 nM.
`Cn1c(=O)c2c(CC(=O)Nc3nc(-c4ccc(F)c(Cl)c4)cs3)cccc2n(C)c1=O` [Example 49, N1-[4-(3-Chloro-4-fluorophenyl)-1,3-thiazol-2-yl]-2-(1,3-dimethyl-2,4-dioxo-1,2,3,4-tetrahydro-5-quinazolinyl)acetamide]: the inhibition at 1 µM was found to be 98.6%, the inhibition at 10 µM was determined as 99% and the IC50 fell in the range of 50.1 to 100 nM.
As to `Cn1c(=O)n(CC2CC2)c(=O)c2c(CC(=O)Nc3nc(-c4ccc(C(F)(F)F)c(F)c4)cs3)cccc21` [Example 61, N1-[4-(3-Fluoro-4-trifluoromethylphenyl)-1,3-thiazol-2-yl]-2-(1-methyl-3-cyclopropyl-methyl-2,4-dioxo-1,2,3,4-tetrahydro-5-quinazolinyl)acetamide], the inhibition at 1 µM came out at 25% and the inhibition at 10 µM was found to be 60.4%.
For `Cn1c(=O)c2c(CC(=O)Nc3nc(-c4ccc(Cl)c(C(F)(F)F)c4)cs3)cccc2n(C)c1=O` [Example 55, N1-[4-(4-Chloro, 3-trifluoromethylphenyl)-1,3-thiazol-2-yl]-2-(1,3-dimethyl-2,4-dioxo-1,2,3,4-tetrahydro-5-quinazolinyl)acetamide], the inhibition at 1 µM turned out to be 100%, the inhibition at 10 µM was 100% and the IC50 was under 50 nM.
For the compound `Cn1c(=O)c2c(CC(=O)Nc3nc(-c4cc(C(F)(F)F)ccc4F)cs3)cccc2n(C)c1=O` [Example 40, N1-[4-(2-Fluoro-5-trifluoromethylphenyl)-1,3-thiazol-2-yl]-2-(1,3-dimethyl-2,4-dioxo-1,2,3,4-tetrahydro-5-quinazolinyl)acetamide], the inhibition at 1 µM was determined as 82.7%, the inhibition at 10 µM came out at 98.7% and the half-maximal inhibitory concentration (IC50) is over 100 nM.

As usually defined, the inhibition is the percentage by which the read-out fell short of the control. Usually IC50 stands for the midpoint of a concentration-inhibition curve.
